The test has as its target T1, EcDsbA (DsbA, oxidized) (Escherichia coli, UniProt P0AEG4).
T1 construct: 21 kDa oxidized EcDsbA
Kind of test: X-ray crystal structure ([…] Å, soaking), intermolecular NOEs/NMR2, KD from HSQC chemical shift perturbation titration. Type of test: binding.

T1 sequence (P0AEG4 20-208): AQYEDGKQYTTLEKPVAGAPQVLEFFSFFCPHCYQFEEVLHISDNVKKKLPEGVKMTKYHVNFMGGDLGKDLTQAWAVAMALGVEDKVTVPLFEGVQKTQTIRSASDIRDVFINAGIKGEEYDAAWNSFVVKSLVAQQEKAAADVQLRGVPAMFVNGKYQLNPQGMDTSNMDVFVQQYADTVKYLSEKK

For orientation: Kd means the equilibrium constant for the complex coming apart. As to `O=C(O)c1sc(CCCc2ccccc2)nc1-c1ccccc1` [compound 1, phenylthiazole 1], the Kd was about 900 µM.
